From ChEMBL document CHEMBL1909046, “DrugMatrix in vitro pharmacology data” come the findings set out here.

In test [1] the target is Sodium-dependent noradrenaline transporter (Homo sapiens, UniProt P23975). The test is described as follows: DRUGMATRIX: Norepinephrine Transporter radioligand binding (ligand: [125I] RTI-55). The class given is cell membranes, MDCK, Membrane. The conditions noted are these: Not Active = under 50% inhibition at 10 µM.
Test [2] addresses Mitogen-activated protein kinase 1 (Homo sapiens, UniProt P28482). Nature of the test: DRUGMATRIX: Protein Serine/Threonine Kinase, ERK2 enzyme inhibition (substrate: Myelin Basic Protein). Also on record: species or system Escherichia coli. The conditions noted are these: Not Active = under 50% inhibition at 10 µM.
The nature of test [3]: DRUGMATRIX: Tumor Necrosis Factor (TNF), Non-Selective radioligand binding (ligand: [125I] TNF-alpha). The class given is cell membranes, Membrane. The conditions noted are these: u-937; Not Active = under 50% inhibition at 10 µM.
The target of the next test is Histamine H2 receptor (Homo sapiens, UniProt P25021). Format: cell membranes, CHO-K1, Membrane. Note: in other assays of this panel Not Active means under 50% inhibition at 10 µM.
Chain of Histamine H2 receptor (P25021 whole entry): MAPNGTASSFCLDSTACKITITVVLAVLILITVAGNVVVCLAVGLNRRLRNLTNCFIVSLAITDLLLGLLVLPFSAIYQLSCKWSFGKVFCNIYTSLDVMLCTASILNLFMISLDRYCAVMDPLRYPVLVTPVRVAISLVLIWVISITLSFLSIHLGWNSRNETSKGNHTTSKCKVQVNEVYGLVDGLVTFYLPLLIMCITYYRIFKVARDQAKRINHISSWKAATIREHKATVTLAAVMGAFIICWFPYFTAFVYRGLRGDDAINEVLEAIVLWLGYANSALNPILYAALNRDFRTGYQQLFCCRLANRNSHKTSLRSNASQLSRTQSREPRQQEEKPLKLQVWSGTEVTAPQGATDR
Test [4] has as its target T1, 5-hydroxytryptamine receptor 2C (Homo sapiens, UniProt P28335).
T1 sequence (P28335 whole entry): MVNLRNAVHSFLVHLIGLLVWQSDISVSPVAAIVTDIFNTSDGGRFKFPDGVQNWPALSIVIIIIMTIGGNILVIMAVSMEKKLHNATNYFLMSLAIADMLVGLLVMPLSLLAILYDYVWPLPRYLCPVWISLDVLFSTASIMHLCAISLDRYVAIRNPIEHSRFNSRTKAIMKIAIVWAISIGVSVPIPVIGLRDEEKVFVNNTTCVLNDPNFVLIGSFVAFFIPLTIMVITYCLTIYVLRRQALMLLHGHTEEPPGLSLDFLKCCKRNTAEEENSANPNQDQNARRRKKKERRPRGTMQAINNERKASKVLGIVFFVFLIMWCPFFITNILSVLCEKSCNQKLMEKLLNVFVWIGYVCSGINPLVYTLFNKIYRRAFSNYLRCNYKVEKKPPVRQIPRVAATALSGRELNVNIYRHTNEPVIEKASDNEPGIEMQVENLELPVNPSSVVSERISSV
The test is described as follows: DRUGMATRIX: Serotonin (5-Hydroxytryptamine) 5-HT2C radioligand binding (ligand: [3H] Mesulergine). Format: cell membranes, CHO-K1, Membrane. The note with it: Not Active = under 50% inhibition at 10 µM.

The target in test [5] is T2, 5-hydroxytryptamine receptor 1A (Rattus norvegicus, UniProt P19327). Note: in other assays of this panel Not Active means under 50% inhibition at 10 µM.
T2 sequence (P19327 whole entry): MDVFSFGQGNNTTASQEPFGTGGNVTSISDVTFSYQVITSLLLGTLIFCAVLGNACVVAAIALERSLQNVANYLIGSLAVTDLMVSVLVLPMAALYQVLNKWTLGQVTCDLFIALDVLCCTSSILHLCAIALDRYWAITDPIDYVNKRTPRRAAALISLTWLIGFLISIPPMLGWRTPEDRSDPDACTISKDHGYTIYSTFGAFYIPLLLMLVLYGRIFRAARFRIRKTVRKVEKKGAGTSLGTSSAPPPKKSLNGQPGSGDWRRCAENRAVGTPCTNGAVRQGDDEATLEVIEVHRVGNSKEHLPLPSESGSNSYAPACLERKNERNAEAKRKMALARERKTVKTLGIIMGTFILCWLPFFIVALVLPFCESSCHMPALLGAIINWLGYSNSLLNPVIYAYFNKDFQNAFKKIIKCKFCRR
Format: cell membranes, CHO-K1, Membrane. The conditions noted are these: cho-k1.

Chain of Mitogen-activated protein kinase 1 (P28482 whole entry): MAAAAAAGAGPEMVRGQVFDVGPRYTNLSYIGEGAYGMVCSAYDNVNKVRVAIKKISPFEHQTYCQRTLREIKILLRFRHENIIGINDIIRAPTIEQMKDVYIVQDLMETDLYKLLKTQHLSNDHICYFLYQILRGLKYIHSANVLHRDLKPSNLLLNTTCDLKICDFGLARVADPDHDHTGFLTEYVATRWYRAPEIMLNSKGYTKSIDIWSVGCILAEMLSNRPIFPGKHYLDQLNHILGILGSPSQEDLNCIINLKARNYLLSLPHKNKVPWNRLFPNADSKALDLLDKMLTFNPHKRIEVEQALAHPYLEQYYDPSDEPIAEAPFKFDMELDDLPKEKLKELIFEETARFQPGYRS
Chain of Sodium-dependent noradrenaline transporter (P23975 whole entry): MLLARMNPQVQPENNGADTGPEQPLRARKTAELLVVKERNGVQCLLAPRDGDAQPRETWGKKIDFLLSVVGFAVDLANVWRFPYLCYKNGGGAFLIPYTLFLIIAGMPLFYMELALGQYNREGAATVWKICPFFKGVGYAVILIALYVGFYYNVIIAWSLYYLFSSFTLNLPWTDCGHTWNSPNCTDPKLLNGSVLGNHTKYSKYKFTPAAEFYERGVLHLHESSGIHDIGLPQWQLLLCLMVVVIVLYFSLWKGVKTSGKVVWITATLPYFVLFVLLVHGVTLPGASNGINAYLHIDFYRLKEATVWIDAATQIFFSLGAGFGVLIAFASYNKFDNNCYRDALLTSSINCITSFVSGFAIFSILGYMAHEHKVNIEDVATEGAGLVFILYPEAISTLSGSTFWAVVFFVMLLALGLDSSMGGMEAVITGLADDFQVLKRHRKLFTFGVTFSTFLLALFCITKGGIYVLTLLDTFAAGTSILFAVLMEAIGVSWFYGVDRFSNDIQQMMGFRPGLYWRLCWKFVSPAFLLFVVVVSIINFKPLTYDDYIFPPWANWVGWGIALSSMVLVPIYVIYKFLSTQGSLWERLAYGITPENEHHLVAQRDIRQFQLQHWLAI

As usually defined, the IC50 is the point on the concentration scale where inhibition reaches its midpoint. One may read the Ki as the dissociation constant of the complex between target and ligand, obtained from inhibition or displacement. For the molecule `CN(C)C(=O)Oc1cccc([N+](C)(C)C)c1.[Br-]` [NEOSTIGMINE BROMIDE], the 50% inhibitory concentration (IC50) result (in test [1] (mdck); in test [2]; in test [3]; against Histamine H2 receptor (cho-k1); in test [4] (cho-k1); in test [5]) was “Not Active” each time. For the same molecule, in test [3], the Ki entry is “Not Active”.

Regarding `NC(=O)c1cccnc1` [NIACINAMIDE], the IC50 result (in test [1] (mdck); in test [2]; in test [3]; at Histamine H2 receptor (cho-k1); in test [4] (cho-k1); in test [5]) was “Not Active” throughout. Besides, the Ki result in test [3] is “Not Active”.

`CS(=O)(=O)Nc1ccc([N+](=O)[O-])cc1Oc1ccccc1` [NIMESULIDE]: the IC50 entry (in test [1] (mdck); in test [2]; in test [3]; on Histamine H2 receptor (cho-k1); in test [4] (cho-k1); in test [5]) was “Not Active” in each case. For the same molecule, the Ki result in test [3] was “Not Active”.

As for `CN1C(=O)CN=C(c2ccccc2)c2cc([N+](=O)[O-])ccc21` [NIMETAZEPAM], the IC50 entry (in test [1] (mdck); in test [2]; in test [3]; against Histamine H2 receptor (cho-k1); in test [4] (cho-k1); in test [5]) was “Not Active” throughout. Moreover, the Ki entry in test [3] is recorded as “Not Active”.

Turning to `COc1ccc2c(c1OC)C(=O)O[C@@H]2[C@H]1c2c(cc3c(c2OC)OCO3)CCN1C` [NOSCAPINE], the IC50 entry (in test [1] (mdck); in test [2]; in test [3]; against Histamine H2 receptor (cho-k1); in test [4] (cho-k1); in test [5]) was “Not Active” throughout. Moreover, the Ki entry in test [3] is “Not Active”.

For the molecule `NC(=O)N1c2ccccc2CC(=O)c2ccccc21` [OXCARBAZEPINE], the IC50 result (in test [1] (mdck); in test [2]; in test [3]; against Histamine H2 receptor (cho-k1); in test [4] (cho-k1); in test [5]) was “Not Active” throughout. Moreover, in test [3], the Ki entry is given as “Not Active”.

Take `COc1ccnc(C[S+]([O-])c2nc3ccc(OC(F)F)cc3[nH]2)c1OC` (stereo not given) [PANTOPRAZOLE]: the IC50 result (in test [1] (mdck); in test [2]; in test [3]; on Histamine H2 receptor (cho-k1); in test [4] (cho-k1); in test [5]) was “Not Active” in each case. For the same molecule, the Ki result in test [3] is “Not Active”.

With `N=C(N)c1ccc(OCCCCCOc2ccc(C(=N)N)cc2)cc1` [PENTAMIDINE], the IC50 in test [1] (read-out: IC50) is 2210 nM; in test [2] it was “Not Active”; in test [3], “Not Active”; against Histamine H2 receptor (cho-k1) it was “Not Active”; in test [4] (read-out: IC50), 3280 nM; in test [5] it was “Not Active”. For the same molecule, the inhibition constant (Ki) in test [1] (read-out: Ki) was 2200 nM; in test [3], “Not Active”; in test [4] (read-out: Ki) it was 1720 nM.

As to `NNCCc1ccccc1` [PHENELZINE], the half-maximal inhibitory concentration (IC50) result (in test [1] (mdck); in test [2]; in test [3]; against Histamine H2 receptor (cho-k1); in test [4] (cho-k1); in test [5]) was “Not Active” throughout. Besides, the Ki result in test [3] is on record as “Not Active”.

`CCc1ccc(CCOc2ccc(CC3SC(=O)NC3=O)cc2)nc1` (stereo not given) [PIOGLITAZONE]: the IC50 result (in test [1] (mdck); in test [2]; in test [3]; at Histamine H2 receptor (cho-k1); in test [4] (cho-k1); in test [5]) was “Not Active” in each case. Further, the inhibitory constant (Ki) result in test [3] was “Not Active”.

On to `CCCNC(C)C(=O)Nc1ccccc1C` (stereo not given) [PRILOCAINE], for which the IC50 result (in test [1] (mdck); in test [2]; in test [3]; against Histamine H2 receptor (cho-k1); in test [4] (cho-k1); in test [5]) was “Not Active” in each case. In addition, in test [3], the Ki entry is reported as “Not Active”.

Take `CCN(CC)CCNC(=O)c1ccc(N)cc1` [PROCAINAMIDE]: the IC50 entry (in test [1] (mdck); in test [2]; in test [3]; against Histamine H2 receptor (cho-k1); in test [4] (cho-k1); in test [5]) was “Not Active” in each case. In test [3], the Ki result is “Not Active”.

As for `CCN(CC)CCCC(C)Nc1c2ccc(Cl)cc2nc2ccc(OC)cc12` (stereo not given) [QUINACRINE], the concentration for half-maximal inhibition (IC50) is 2900 nM in test [1] (read-out: IC50); “Not Active” in test [2]; “Not Active” in test [3]; 3540 nM at Histamine H2 receptor (read-out: IC50); “Not Active” in test [4] (cho-k1); “Not Active” in test [5]. Also, the figures for the Ki (in test [1] (read-out: Ki); in test [3]; at Histamine H2 receptor (read-out: Ki)) were 2870 nM, “Not Active” and 3480 nM, respectively.

Consider `C[C@]12C=CC(=O)C=C1CC[C@H]1[C@@H]3C[C@@H](O)[C@](O)(C(=O)CO)[C@@]3(C)C[C@H](O)[C@@]12F` [TRIAMCINOLONE], for which the IC50 result (in test [1] (mdck); in test [2]; in test [3]; at Histamine H2 receptor (cho-k1); in test [4] (cho-k1); in test [5]) was “Not Active” in each case. The Ki entry in test [3] is recorded as “Not Active”.

Consider `CC[C@]1(O)C[C@@H]2CN(CCc3c([nH]c4ccccc34)[C@@](C(=O)OC)(c3cc4c(cc3OC)N(C)[C@H]3[C@@](O)(C(N)=O)[C@H](O)[C@]5(CC)C=CCN6CC[C@]43[C@@H]65)C2)C1` [VINDESINE], for which the IC50 entry (in test [1] (mdck); in test [2]; in test [3]; at Histamine H2 receptor (cho-k1); in test [4] (cho-k1); in test [5]) was “Not Active” throughout. Moreover, in test [3], the Ki result was “Not Active”.

As to `CCN(C(C)=O)c1cccc(-c2ccnc3c(C#N)cnn23)c1` [ZALEPLON], the IC50 entry (in test [1] (mdck); in test [2]; in test [3]; against Histamine H2 receptor (cho-k1); in test [4] (cho-k1); in test [5]) was “Not Active” in each case. In addition, the Ki entry in test [3] was “Not Active”.

As for COBALTOUS CHLORIDE, the IC50 entry (in test [1] (mdck); in test [2]; in test [3]; against Histamine H2 receptor (cho-k1); in test [4] (cho-k1); in test [5]) was “Not Active” each time. The Ki entry (in test [1] (mdck); in test [2]; in test [3]; on Histamine H2 receptor (cho-k1); in test [4] (cho-k1); in test [5]) was “Not Active” each time.

Regarding COLISTIN, the IC50 result (in test [1] (mdck); in test [2]; in test [3]; on Histamine H2 receptor (cho-k1); in test [4] (cho-k1); in test [5]) was “Not Active” throughout. Further, the Ki result (in test [1] (mdck); in test [2]; in test [3]; at Histamine H2 receptor (cho-k1); in test [4] (cho-k1); in test [5]) was “Not Active” in each case.
